The target of data set [1] is ERα (Homo sapiens, UniProt P03372). Put plainly: cell-based. It is filed as cell-based. To be noted: for Agonist Mode ERα Eff (%E2): maximal response as percentage of response to 10^−8 M E2, HEK293T.
Data set [2] addresses ERβ (Homo sapiens, UniProt Q92731). Put plainly: cell-based. It is filed as cell-based. The settings on record: for Emax: HEK-293T, 24 h, read-out: Agonist Mode ERβ Eff (%E2); for transcriptional activity profile on ERβ: reporter gene assay, HEK293T.
Data set [3] deals with human ERβ ligand binding domain (LBD) (Homo sapiens, UniProt Q92731). The experiment in a line: competitive fluorometric. To be noted: ratio of RBA ERβ to RBA ERα.
Chain of human ERβ ligand binding domain (LBD) (Q92731 264-498 limits assumed): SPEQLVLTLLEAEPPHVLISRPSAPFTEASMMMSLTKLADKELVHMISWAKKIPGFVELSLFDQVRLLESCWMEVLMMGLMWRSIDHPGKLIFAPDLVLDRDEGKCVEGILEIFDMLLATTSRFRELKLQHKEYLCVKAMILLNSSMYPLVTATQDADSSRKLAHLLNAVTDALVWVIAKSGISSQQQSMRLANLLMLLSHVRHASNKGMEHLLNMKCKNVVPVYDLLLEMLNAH
The subject of data set [4] is VERO cells. Put plainly: toxicity to normal cells, MTT assay, VERO. (In general: Formazan colour is commonly taken as a measure of viable cells.)
The test system of data set [5] is MCF-7 breast cancer cells. The experiment in a line: antiproliferative activity, MTT assay, MCF-7. To be noted: Homo sapiens, MCF7, 72 h, read-out: MCF-7 Inhibition (%).
The target in data set [6] is T1, human ERα ligand binding domain (LBD) (Homo sapiens, UniProt P03372).
T1 sequence (P03372 311-547 limits assumed): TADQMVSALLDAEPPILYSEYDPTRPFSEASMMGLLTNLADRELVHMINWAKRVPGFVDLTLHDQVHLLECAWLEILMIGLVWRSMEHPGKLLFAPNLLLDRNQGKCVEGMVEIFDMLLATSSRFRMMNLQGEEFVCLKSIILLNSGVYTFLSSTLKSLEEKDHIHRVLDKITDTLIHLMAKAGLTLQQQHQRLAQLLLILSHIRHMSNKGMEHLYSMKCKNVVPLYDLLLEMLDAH
The experiment in a line: competitive fluorometric. The settings on record: relative to parent 2a (compared to 2a and 4a).

Where “and” joins values, the source holds several entries; their conditions need not be identical. Equal values may be shown once.

Chain of ERα (P03372 whole entry): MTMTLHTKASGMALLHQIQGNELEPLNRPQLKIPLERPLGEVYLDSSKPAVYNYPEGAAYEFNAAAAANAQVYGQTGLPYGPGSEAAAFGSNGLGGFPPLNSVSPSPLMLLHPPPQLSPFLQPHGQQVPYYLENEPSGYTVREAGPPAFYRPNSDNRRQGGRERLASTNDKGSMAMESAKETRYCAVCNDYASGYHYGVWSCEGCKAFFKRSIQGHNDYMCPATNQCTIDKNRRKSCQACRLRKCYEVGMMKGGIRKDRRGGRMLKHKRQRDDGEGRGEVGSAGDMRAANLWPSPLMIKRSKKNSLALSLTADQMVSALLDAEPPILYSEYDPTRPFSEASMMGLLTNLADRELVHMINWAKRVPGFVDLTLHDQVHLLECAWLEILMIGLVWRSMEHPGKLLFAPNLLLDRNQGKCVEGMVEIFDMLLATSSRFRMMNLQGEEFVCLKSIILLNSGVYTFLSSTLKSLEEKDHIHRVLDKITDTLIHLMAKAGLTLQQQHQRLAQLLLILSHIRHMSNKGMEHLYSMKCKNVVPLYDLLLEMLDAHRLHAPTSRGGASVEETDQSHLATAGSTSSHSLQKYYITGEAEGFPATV
Chain of ERβ (Q92731 whole entry, the tested form may be a part): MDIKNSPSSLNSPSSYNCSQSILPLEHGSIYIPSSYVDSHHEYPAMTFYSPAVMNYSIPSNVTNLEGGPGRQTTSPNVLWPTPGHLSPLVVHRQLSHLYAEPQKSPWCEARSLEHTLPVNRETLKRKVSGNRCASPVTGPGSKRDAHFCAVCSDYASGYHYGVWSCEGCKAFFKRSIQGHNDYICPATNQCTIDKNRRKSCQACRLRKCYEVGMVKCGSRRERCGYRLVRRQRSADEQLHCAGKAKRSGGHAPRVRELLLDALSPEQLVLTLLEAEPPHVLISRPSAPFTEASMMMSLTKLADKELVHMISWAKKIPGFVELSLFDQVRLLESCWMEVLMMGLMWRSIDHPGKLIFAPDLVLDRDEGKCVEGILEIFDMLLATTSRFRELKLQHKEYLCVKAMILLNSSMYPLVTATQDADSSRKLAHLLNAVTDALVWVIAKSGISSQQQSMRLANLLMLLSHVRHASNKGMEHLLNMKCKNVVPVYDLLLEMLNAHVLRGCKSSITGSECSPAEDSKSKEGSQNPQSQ

The term EC50 denotes the concentration at which the effect is half-maximal. Read a low EC50 as a more potent agent. Broadly, the inhibition is how much of the control response was suppressed. Regarding `Cc1cc(-c2cc(-c3cc(C)c(O)c(C)c3)c(-c3cc(C)c(O)c(C)c3)[se]2)cc(C)c1O` [Compound 8c, 2,3,5-Tris(4-hydroxy-3,5-dimethylphenyl)selenophene], in data set [1], the EC50 was 270 nM and the “Agonist Mode ERα Eff (%E2)” value was determined as 74 ± 4 %E2. For the same compound, in data set [2], the midpoint of the response, the EC50, lay at 17 nM and the Emax turned out to be 69 ± 5%. In addition, the β/α in data set [3] was 0.55. In addition, the “toxicity to healthy VERO cells” value in data set [4] was “nontoxic”. In data set [5], the inhibition at 10 µM came to 75.3%.

As to `Oc1ccc(-c2cc(Br)c(-c3ccc(O)cc3)[se]2)cc1` [Compound 6a, 3-Bromo-2,5-bis(4-hydroxyphenyl)selenophene], the “fold increase in binding affinity for ERα over 2a” value in data set [6] is 8 fold and ~10 fold. In addition, in data set [1], the EC50 was 15 nM and the “Agonist Mode ERα Eff (%E2)” value is listed as 69 ± 11 %E2. Besides, the “transcriptional activity profile on ERα” value in data set [1] (reporter gene assay, HEK293T) is recorded as “full agonist”. For the same compound, in data set [2], a half-maximal response (EC50) required 13 nM, the Emax came out at 40 ± 5% and the “transcriptional activity profile on ERβ” value is “partial agonist”. In data set [3], the β/α was determined as 2.32. The inhibition at 10 µM in data set [5] stood at 0%.

Regarding `CC/C(=C(\c1ccc(O)cc1)c1ccc(OCCN(C)C)cc1)c1ccccc1` [Compound 4OHT, 4-hydroxytamoxifen, reference compound], in data set [2], the “Agonist Mode ERβ Eff (%E2)” value is −1 ± 1 %E2 and the “Antagonist Mode ERβ Eff (%E2)” value is −20 ± 2 %E2. In addition, the “toxicity to healthy VERO cells” value in data set [4] is given as “considerable toxicity”. Further, the inhibition at 10 µM in data set [5] was determined as 81.7%.

Regarding `Cc1cc(O)ccc1-c1cc(Br)c(-c2ccc(O)cc2C)[se]1` [Compound 6b, 3-Bromo-2,5-bis(4-hydroxy-2-methylphenyl)selenophene], in data set [6], the “fold increase in binding affinity for ERα over 2a” value is “more than 23 fold”. For the same compound, in data set [1], it took 790 nM to reach a half-maximal effect (EC50) and the “Agonist Mode ERα Eff (%E2)” value was determined as 21 ± 5 %E2. In addition, in data set [2], the EC50 amounted to 9 nM, the Emax came to 69 ± 9% and the “transcriptional activity profile on ERβ” value is “antagonist”. In addition, in data set [3], the β/α was determined as 0.74. Also, the inhibition at 10 µM in data set [5] is 2.5%.
